Active and inactive are the calls of the source.
Columns and labels:
[1] = target: T1, RNA-binding protein pos-1 (Caenorhabditis elegans, UniProt G5EF15); assay: inhibitors of POS-1/mex-3 RNA binding, dose response, biochemical, fluorescence polarization (AID 1964);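 further: purified POS-1 fused to maltose binding protein made in E. coli; potency of compounds blocking POS-1 binding to fluorescent RNA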
T1 sequence (G5EF15 whole entry): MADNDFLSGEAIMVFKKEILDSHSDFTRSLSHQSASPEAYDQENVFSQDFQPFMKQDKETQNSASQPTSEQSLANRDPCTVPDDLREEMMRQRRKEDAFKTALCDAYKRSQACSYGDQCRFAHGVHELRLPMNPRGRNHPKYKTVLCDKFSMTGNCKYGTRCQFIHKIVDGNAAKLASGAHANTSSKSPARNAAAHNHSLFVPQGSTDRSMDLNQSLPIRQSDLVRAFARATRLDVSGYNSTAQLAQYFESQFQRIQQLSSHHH

[2] = target: T2, Zinc finger protein mex-5 (Caenorhabditis elegans, UniProt Q9XUB2); assay: MEX-5/TCR-2 RNA interaction inhibitors, dose response, biochemical, C. elegans, fluorescence polarization (AID 1960)
T2 sequence (Q9XUB2 whole entry): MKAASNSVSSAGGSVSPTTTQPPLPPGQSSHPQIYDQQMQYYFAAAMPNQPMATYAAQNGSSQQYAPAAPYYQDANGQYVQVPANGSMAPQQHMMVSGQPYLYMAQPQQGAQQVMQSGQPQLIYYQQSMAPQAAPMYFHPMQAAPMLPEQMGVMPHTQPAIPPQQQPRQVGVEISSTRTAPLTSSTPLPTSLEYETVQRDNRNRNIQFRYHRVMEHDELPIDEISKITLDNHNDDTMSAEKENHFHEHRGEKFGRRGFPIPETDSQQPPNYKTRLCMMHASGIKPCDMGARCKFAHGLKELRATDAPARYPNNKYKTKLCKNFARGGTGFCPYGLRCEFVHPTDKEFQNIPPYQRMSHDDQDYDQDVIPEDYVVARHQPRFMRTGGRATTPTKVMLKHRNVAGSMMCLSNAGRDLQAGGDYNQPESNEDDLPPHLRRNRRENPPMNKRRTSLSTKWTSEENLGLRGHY

[3] = target: T3, Endoribonuclease toxin MazF (Escherichia coli K-12, UniProt P0AE70); assay: fluorescent RNA oligo signal without MazF, dose response, counter-screen for MazEF activator project, biochemical, fluorescence, single-stranded RNase substrate (AID 588502); assay type: functional
T3 sequence (P0AE70 whole entry): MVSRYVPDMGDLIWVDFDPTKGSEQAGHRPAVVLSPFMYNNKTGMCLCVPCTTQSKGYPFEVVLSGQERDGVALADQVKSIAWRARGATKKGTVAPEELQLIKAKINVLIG

[4] = target: T3, Endoribonuclease toxin MazF; assay: MazF toxin RNase activators, dose response, biochemical, fluorescence, single-stranded RNA substrate, uHTS hits (AID 588481); assay type: functional
[5] = target: T4, Sentrin-specific protease 6 (Homo sapiens, UniProt Q9GZR1); assay: SAR Analysis of small molecule inhibitors of Sentrin-specific protease 6 (SENP6) using a Luminescent assay. [Related pubchem assays (depositor defined):AID2582, AID2599]; assay type: functional
T4 sequence (Q9GZR1 whole entry): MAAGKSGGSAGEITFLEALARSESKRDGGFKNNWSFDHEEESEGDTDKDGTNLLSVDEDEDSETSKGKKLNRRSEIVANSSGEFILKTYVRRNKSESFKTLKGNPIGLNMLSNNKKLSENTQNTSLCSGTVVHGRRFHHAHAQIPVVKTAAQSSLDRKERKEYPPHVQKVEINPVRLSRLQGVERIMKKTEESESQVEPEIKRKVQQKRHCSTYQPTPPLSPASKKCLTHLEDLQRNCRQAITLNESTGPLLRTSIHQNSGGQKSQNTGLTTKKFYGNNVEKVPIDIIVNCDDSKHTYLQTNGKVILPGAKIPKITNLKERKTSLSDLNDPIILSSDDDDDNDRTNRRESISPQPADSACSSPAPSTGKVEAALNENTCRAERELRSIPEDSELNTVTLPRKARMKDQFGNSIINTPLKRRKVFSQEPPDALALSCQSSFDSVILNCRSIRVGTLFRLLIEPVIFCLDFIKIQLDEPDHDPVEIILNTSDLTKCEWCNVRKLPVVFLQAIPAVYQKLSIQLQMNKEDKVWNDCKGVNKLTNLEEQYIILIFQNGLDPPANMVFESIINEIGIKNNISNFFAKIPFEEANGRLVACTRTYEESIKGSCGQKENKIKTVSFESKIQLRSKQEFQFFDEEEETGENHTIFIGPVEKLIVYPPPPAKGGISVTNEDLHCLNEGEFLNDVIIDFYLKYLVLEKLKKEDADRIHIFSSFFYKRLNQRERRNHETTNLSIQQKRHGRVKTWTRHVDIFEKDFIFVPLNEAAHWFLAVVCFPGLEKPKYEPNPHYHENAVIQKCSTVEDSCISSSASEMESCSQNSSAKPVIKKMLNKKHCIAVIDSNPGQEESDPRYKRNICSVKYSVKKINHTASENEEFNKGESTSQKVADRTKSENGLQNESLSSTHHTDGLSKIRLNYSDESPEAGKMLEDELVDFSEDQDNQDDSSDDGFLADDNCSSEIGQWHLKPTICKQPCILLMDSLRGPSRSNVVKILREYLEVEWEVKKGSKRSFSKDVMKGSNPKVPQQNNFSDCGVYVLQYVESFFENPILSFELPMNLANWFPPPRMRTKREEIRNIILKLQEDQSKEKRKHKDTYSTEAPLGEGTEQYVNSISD

[6] = target: T5, Sentrin-specific protease 8 (Homo sapiens, UniProt Q96LD8); assay: SENP8 protease inhibitors, SAR follow-up, biochemical, luminescence (AID 504501); assay type: functional
T5 sequence (Q96LD8 whole entry): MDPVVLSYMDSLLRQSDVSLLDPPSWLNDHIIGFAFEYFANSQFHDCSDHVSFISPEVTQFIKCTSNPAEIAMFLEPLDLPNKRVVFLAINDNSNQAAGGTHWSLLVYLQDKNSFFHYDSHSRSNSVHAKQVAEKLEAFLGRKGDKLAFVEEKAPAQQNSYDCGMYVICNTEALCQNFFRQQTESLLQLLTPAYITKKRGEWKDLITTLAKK

[7] = target: T6, Caspase-3 (Homo sapiens, UniProt P42574); assay: SAR Analysis of small molecule inhibitors of Sentrin-specific proteases (SENPs) using a Caspase-3 Selectivity assay. [Related pubchem assays (depositor defined):AID2540, AID2599, AID434973, AID489001]; assay type: functional
T6 sequence (P42574 whole entry): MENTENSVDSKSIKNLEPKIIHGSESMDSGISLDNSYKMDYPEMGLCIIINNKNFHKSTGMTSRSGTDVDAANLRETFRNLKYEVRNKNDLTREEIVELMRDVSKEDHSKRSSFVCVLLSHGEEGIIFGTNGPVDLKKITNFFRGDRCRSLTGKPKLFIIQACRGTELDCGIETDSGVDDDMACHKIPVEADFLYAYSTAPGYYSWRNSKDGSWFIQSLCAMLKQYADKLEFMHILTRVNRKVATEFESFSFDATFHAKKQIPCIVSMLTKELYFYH

[8] = target: T7, Sentrin-specific protease 7 (Homo sapiens, UniProt Q9BQF6); assay: SENP7 protease inhibitors, SAR follow-up, biochemical, luminescence (AID 504497); assay type: functional
T7 sequence (Q9BQF6 whole entry): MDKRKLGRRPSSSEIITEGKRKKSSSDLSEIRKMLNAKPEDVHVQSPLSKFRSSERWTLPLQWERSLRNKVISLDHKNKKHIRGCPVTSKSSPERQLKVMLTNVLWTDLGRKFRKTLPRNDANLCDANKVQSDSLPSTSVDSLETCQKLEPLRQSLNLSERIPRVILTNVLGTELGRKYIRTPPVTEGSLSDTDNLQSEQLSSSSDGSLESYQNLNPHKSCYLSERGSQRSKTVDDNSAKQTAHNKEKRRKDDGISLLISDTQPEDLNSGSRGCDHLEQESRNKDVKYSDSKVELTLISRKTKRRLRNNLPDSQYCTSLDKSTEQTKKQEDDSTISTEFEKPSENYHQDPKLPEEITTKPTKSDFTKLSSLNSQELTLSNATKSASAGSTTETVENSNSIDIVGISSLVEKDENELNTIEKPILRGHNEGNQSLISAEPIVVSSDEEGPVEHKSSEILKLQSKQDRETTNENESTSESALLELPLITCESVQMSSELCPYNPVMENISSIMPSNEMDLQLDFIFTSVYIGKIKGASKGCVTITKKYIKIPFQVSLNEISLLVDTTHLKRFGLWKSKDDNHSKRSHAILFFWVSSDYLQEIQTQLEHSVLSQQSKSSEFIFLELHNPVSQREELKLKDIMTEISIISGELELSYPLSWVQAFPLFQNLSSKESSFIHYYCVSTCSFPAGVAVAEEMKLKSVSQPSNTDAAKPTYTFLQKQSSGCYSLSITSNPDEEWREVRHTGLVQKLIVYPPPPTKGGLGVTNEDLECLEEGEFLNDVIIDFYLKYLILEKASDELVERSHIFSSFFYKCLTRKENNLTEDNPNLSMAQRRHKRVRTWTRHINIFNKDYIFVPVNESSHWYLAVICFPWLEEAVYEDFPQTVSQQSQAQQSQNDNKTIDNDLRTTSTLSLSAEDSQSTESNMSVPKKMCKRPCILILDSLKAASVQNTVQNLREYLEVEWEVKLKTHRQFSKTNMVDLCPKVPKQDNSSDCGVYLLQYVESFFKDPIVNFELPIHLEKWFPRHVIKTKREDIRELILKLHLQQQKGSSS

[9] = target: Prothrombin (Bos taurus, UniProt P00735); assay: thrombin inhibition, dose response, biochemical, fluorescence polarization, uHTS hits (AID 602369); assay type: functional
[10] = target: 72 kDa type IV collagenase (Homo sapiens, UniProt P08253); assay: Dose Response validation of uHTS RPN11 inhibitor hits using a MMP-2 Fluorescence assay.; assay type: functional
72 kDa type IV collagenase, sequence (P08253 whole entry): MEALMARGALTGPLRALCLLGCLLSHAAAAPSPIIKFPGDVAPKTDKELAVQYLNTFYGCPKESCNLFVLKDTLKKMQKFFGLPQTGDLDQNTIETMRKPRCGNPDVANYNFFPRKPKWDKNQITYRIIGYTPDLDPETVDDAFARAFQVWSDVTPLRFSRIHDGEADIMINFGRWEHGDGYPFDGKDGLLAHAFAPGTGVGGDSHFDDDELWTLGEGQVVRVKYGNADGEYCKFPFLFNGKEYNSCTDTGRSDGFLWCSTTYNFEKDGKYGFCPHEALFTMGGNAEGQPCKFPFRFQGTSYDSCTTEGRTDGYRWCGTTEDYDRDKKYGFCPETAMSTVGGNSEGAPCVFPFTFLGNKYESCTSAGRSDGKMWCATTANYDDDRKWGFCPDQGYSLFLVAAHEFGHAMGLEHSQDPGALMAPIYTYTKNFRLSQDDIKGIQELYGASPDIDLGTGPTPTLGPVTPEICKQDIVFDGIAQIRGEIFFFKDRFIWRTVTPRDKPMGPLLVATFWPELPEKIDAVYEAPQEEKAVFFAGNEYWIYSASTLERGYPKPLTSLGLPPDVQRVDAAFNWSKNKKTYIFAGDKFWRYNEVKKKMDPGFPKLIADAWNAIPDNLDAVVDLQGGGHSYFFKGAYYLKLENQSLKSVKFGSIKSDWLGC

[11] = target: 26S proteasome non-ATPase regulatory subunit 14 (Homo sapiens, UniProt O00487); assay: inhibition of proteasome subunit RPN11 – biochemical, fluorescence polarization, uHTS hits, confirmation (AID 602368); assay type: functional
26S proteasome non-ATPase regulatory subunit 14, sequence (O00487 whole entry): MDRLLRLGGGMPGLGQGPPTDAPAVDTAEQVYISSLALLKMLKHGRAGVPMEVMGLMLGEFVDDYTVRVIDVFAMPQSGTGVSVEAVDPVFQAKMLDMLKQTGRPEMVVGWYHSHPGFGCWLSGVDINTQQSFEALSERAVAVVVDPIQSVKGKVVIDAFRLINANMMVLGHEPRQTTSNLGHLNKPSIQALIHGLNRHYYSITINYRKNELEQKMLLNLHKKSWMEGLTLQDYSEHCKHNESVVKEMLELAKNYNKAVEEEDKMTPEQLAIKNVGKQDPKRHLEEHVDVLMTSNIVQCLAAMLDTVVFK

[12] = Luminescence Cell-Based Dose Response HTS to Identify Inhibitors of 5'UTR Stem-Loop Driven Prion Protein mRNA Translation in H4 Neuroglioblastoma Cells. [Related pubchem assays: 1827 (Project Summary), 1813 (Primary HTS)]; assay type: functional
[13] = target: T8, Heat shock factor protein 1 (Mus musculus, UniProt P38532); assay: HSF1 potentiators in luciferase reporter cells, confirmation, cell-based, NIH3T3, luminescence, dose retest (AID 435004); assay type: functional;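 further: stress induced by proteasome inhibitor MG132 added 30 min after compound; luciferase reporter driven by HSF1 response element in NIH3T3 cells; actives raise luminescence as potentiators of the MG132 stress response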
T8 sequence (P38532 whole entry): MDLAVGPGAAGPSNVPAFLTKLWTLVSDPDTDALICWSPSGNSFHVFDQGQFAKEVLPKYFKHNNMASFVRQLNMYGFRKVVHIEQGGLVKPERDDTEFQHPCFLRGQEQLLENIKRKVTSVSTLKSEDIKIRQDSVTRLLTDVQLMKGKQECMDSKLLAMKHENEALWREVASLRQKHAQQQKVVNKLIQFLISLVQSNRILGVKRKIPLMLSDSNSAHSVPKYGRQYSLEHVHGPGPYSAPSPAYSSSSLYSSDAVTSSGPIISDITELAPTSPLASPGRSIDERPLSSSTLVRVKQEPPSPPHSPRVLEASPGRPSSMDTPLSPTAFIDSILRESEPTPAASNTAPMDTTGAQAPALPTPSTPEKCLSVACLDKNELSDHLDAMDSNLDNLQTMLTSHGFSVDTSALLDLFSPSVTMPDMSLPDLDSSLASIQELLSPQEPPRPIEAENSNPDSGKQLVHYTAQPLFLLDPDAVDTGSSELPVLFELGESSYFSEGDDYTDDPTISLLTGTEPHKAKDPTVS

[14] = inhibitors of SNCA 5'UTR-driven reporter translation, confirmation, H4 neuroglioma cells, luminescence (AID 1988); assay type: functional, cell-based
[15] = system: BJ; assay: cytotoxicity toward Ras-transformed BJeLR fibroblasts, dose response, cell-based, alamar blue fluorescence, cherrypicked samples (AID 2631); assay type: functional; conditions: Homo sapiens;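 further: confirmatory dose-response assay in RAS-dependent BJ fibroblasts engineered with TERT, LT and ST, with cytotoxicity read by fluorescence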
[16] = system: BJ; assay: cytotoxicity toward BJ-TERT-LT-ST fibroblasts, dose response, cell-based, RAS-independent, luminescence (AID 1935); assay type: functional; conditions: Homo sapiens;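 further: BJ fibroblasts immortalized with TERT plus LT and ST oncogenes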
[17] = inhibitors of firefly luciferase expression or activity, dose response, H4 neuroglioma cells, luminescence (AID 1990); assay type: functional, cell-based
[18] = system: BJ; assay: cytotoxicity toward BJ-TERT fibroblasts, dose response, cell-based, RAS-independent, luminescence (AID 1933); assay type: functional; conditions: Homo sapiens
[19] = cytotoxicity toward DRD oncogenic fibroblasts, dose response, cell-based, non-viral oncogenic, luminescence (AID 1934); assay type: functional; conditions: Homo sapiens
[20] = system: BJ; assay: cells; assay type: functional, cell-based; conditions: Homo sapiens

CCCCOC(=O)Cn1c2ccc(OC)cc2c2nc3ccccc3nc21
EC50 [1]: > 300 µM (not active) | EC50 [2]: > 300 µM (not active) | EC50 [3]: 24.7 µM (inactive) | EC50 [4]: > 99 µM (inactive)

FC(F)(F)c1ccc(N/N=C/c2c[nH]c3ccccc23)cc1
IC50 [5]: > 99 µM (inactive) | IC50 [6]: > 99 µM (inactive) | IC50 [7]: > 99 µM (inactive) | IC50 [8]: > 99 µM (inactive)

Cc1ccc(C(=O)CSc2cc(C)nc(=O)[nH]2)cc1
IC50 [9]: 47.5 µM (active) | IC50 [10]: 27.9 µM (active) | IC50 [11]: 33.8 µM (active)

O=C(NCc1ccccc1)c1c(Cl)nc(Cl)c(Cl)c1Cl
EC50 [12]: > 120 µM (not active) | EC50 [13]: 57.8 µM (active) | EC50 [14]: > 120 µM (not active) | EC50 [15]: 3.69 µM (active) | EC50 [16]: 7.26 µM (inconclusive) | EC50 [17]: 10.3 µM (active) | EC50 [18]: 6.46 µM (active) | EC50 [19]: 9.83 µM (active) | EC50 [20]: 77.2 µM (inconclusive)

COc1ccc(CCC(=O)Nc2ccc(-c3noc(/C=C/c4ccccc4)n3)cc2)cc1
IC50 [5]: > 99 µM (inactive) | IC50 [6]: > 99 µM (inactive) | IC50 [7]: > 99 µM (inactive) | IC50 [8]: > 99 µM (inactive)

CCN(CC)c1ccc(/C=N/Nc2nc(N3CCCC3)nc(N3CCCC3)n2)cc1
IC50 [5]: > 99 µM (inactive) | IC50 [6]: > 99 µM (inactive) | IC50 [7]: > 99 µM (inactive) | IC50 [8]: > 99 µM (inactive)

Reference: ChEMBL document CHEMBL1201862, “PubChem BioAssay data set” (2004)
